Results reported in patent US20030095958A1, “Inhibitors of bace” (priority 2001, published 2003).

Biological target: BACE (Homo sapiens, UniProt P56817)
Assay: Ki Determination for the Inhibition of BACE (FS-1 peptide fluorescence cleavage assay)
Type: biochemical
Settings: apparent Ki; 50 nM BACE, 10 μM FS-1 substrate, 0.1M sodium acetate pH 4.5
Procedure: Compounds were tested against BACE activity using the following modifications of the method described in J. Ermolieff et al. (2000) Biochemistry 39(51):16263.
All compound evaluations were performed in 0.1M sodium acetate (buffer), pH, 4.5, 10 μM substrate (FS-1 peptide as described in the reference above; this is commercially available), varying concentrations of the test compound or control (DMSO to yeild 2% vol/vol), and 50 nM BACE. The assay volume is 100 μL.
Two microliters of the test compound dissolved in DMSO are added to each well in a 96-well microtiter plate. Seventy eight microliters of BACE are mixed with buffer and added to each well then incubated at room temperature for 15 minutes. A stock solution of 50 μM FS-1 substrate was prepared by addition of an aliquot of FS-1 substrate which was dissolved in DMSO to the buffer and mixed well. The reaction is initiated by addition of 20 μL of the FS-1 mix to the remaining, preincubated assay components. The cleavage reaction of substrate to product is measured using a Molecular Devices fluorescence plate reader with the excitation and emission filter pairs of 355 nm and 495 nm, respectively. Apparent Ki values are determined by fitting the data to the integrated equation for competitive tight binding inhibition.

BACE, sequence (P56817 46-501): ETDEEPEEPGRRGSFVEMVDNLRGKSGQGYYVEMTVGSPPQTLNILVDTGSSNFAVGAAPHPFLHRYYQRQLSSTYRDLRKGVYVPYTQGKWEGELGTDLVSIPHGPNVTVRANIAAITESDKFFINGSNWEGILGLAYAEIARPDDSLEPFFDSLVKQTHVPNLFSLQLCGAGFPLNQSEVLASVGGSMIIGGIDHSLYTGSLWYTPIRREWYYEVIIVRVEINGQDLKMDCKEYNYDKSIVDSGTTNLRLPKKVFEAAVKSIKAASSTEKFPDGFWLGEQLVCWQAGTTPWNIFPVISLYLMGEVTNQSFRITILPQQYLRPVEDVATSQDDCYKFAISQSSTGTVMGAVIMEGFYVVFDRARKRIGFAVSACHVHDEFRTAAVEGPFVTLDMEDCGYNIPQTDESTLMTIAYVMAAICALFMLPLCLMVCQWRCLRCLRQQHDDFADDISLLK

| SMILES | Ki |
| --- | --- |
| Cc1cc(N2CCNCC2)c(NC(=O)c2cccc3ccccc23)cc1-c1ccc(Cl)c(Cl)c1 [Compound 138, Naphthalene-1-carboxylic acid (3′,4′-dichloro-6-methyl-4-piperazin-1-yl-biphenyl-3-yl)-amide] | < 3 µM |
| O=C(Nc1cc(Oc2cccc(Cl)c2)ccc1N1CCNCC1)c1cccc2ccccc12 [Compound 139, Naphthalene-1-carboxylic acid [5-(3-chloro-phenoxy)-2-piperazin-1-yl-phenyl]-amide] | 3 to 30 µM |
| Cc1ccccc1Oc1ccc(N2CCNCC2)c(NC(=O)c2cccc3ccccc23)c1 [Compound 140, Naphthalene-1-carboxylic acid (2-piperazin-1-yl-5-o-tolyloxy-phenyl)-amide] | 3 to 30 µM |
| Cc1cccc(Oc2ccc(N3CCNCC3)c(NC(=O)c3cccc4ccccc34)c2)c1 [Compound 141, Naphthalene-1-carboxylic acid (2-piperazin-1-yl-5-m-tolyloxy-phenyl)-amide] | 3 to 30 µM |
| Cc1ccc(Oc2ccc(N3CCNCC3)c(NC(=O)c3cccc4ccccc34)c2)cc1 [Compound 142, Naphthalene-1-carboxylic acid (2-piperazin-1-yl-5-p-tolyloxy-phenyl)-amide] | 3 to 30 µM |
| COc1ccc2c(C(=O)Nc3cc(C(F)(F)F)ccc3N3CCNCC3)cccc2c1 [Compound 143, 6-Methoxy-naphthalene-1-carboxylic acid (2-piperazin-1-yl-5-trifluoromethyl-phenyl)-amide] | > 30 µM |
| CC(C)NS(=O)(=O)c1ccc(-c2ccc(N3CCNCC3)c(NC(=O)c3cccc4ccccc34)c2)cc1 [Compound 144, Naphthalene-1-carboxylic acid (4′-isopropylsulfamoyl-4-piperazin-1-yl-biphenyl-3-yl)-amide] | 3 to 30 µM |
| O=C(Nc1cc(-c2ccc(S(=O)(=O)NCc3ccccc3)cc2)ccc1N1CCNCC1)c1cccc2ccccc12 [Compound 146, Naphthalene-1-carboxylic acid (4′-benzylsulfamoyl-4-piperazin-1-yl-biphenyl-3-yl)-amide] | < 3 µM |
| O=C(Nc1cc(C(F)(F)F)ccc1N1CCNCC1)c1cccc2cccnc12 [Compound 149, Quinoline-8-carboxylic acid (2-piperazin-1-yl-5-trifluoromethyl-phenyl)-amide] | 3 to 30 µM |
| O=C(Nc1cc(C(F)(F)F)ccc1N1CCNCC1)Oc1cccc2ccccc12 [Compound 150, (2-Piperazin-1-yl-5-trifluoromethyl-phenyl)-carbamic acid naphthalen-1-yl ester] | 3 to 30 µM |
| O=C(Nc1cc(C(F)(F)F)ccc1N1CCNCC1)Oc1ccc2ccccc2c1 [Compound 151, (2-Piperazin-1-yl-5-trifluoromethyl-phenyl)-carbamic acid naphthalen-2-yl ester] | 3 to 30 µM |
| O=C(Nc1cc(-c2ccoc2)ccc1N1CCNCC1)c1cccc2ccccc12 [Compound 152, Naphthalene-1-carboxylic acid (5-furan-3-yl-2-piperazin-1-yl-phenyl)-amide] | > 30 µM |
| O=C(Nc1cc(-c2ccsc2)ccc1N1CCNCC1)c1cccc2ccccc12 [Compound 153, Naphthalene-1-carboxylic acid (2-piperazin-1-yl-5-thiophen-3-yl-phenyl)-amide] | 3 to 30 µM |
| Cc1cc(N2CCNCC2)c(NC(=O)c2cccc3ccccc23)cc1-c1ccoc1 [Compound 154, Naphthalene-1-carboxylic acid (5-furan-3-yl-4-methyl-2-piperazin-1-yl-phenyl)-amide] | > 30 µM |
| O=C(Nc1ccc(OCc2ccccc2)cc1N1CCNCC1)c1cccc2ccccc12 [Compound 156, Naphthalene-1-carboxylic acid (4-benzyloxy-2-piperazin-1-yl-phenyl)-amide] | > 30 µM |
| O=C(Nc1cc(F)c(Br)cc1N1CCNCC1)c1cccc2ccccc12 [Compound 157, Naphthalene-1-carboxylic acid (4-bromo-5-fluoro-2-piperazin-1-yl-phenyl)-amide] | > 30 µM |
| O=C(Nc1cc(F)c(-c2ccoc2)cc1N1CCNCC1)c1cccc2ccccc12 [Compound 160, Naphthalene-1-carboxylic acid (5-fluoro-4-furan-3-yl-2-piperazin-1-yl-phenyl)-amide] | 3 to 30 µM |
| O=C(Nc1cc(-c2ccc(C(F)(F)F)cc2F)ccc1N1CCNCC1)c1cccc2ccccc12 [Compound 161, Naphthalene-1-carboxylic acid (2′-fluoro-4-piperazin-1-yl-4′-trifluoromethyl-biphenyl-3-yl)-amide] | 3 to 30 µM |
| O=C(Nc1cc(-c2cc(F)c(C(F)(F)F)cc2F)ccc1N1CCNCC1)c1cccc2ccccc12 [Compound 162, Naphthalene-1-carboxylic acid (2′,5′-difluoro-4-piperazin-1-yl-4′-trifluoromethyl-biphenyl-3-yl)-amide] | < 3 µM |
| O=C(Nc1cc(-c2ccc(S(=O)(=O)NCc3ccccc3)c(F)c2)ccc1N1CCNCC1)c1cccc2ccccc12 [Compound 163, Naphthalene-1-carboxylic acid (4′-benzylsulfamoyl-3′-fluoro-4-piperazin-1-yl-biphenyl-3-yl)-amide] | < 3 µM |
| O=C(Nc1cc(-c2cc(F)c(S(=O)(=O)NCc3ccccc3)cc2F)ccc1N1CCNCC1)c1cccc2ccccc12 [Compound 164, Naphthalene-1-carboxylic acid (4′-benzylsulfamoyl-2′,5′-difluoro-4-piperazin-1-yl-biphenyl-3-yl)-amide] | 3 to 30 µM |
| c1ccc(-c2ccc(N3CCNCC3)c(NCc3ccc4ccccc4c3)c2)cc1 [Compound 165, Naphthalen-2-ylmethyl-(4-piperazin-1-yl-biphenyl-3-yl)-amine] | < 3 µM |
| O=C(Nc1cc(C(F)(F)F)c(Cl)cc1N1CCNCC1)c1cccc2ccccc12 [Compound 167, Naphthalene-1-carboxylic acid (4-chloro-2-piperazin-1-yl-5-trifluoromethyl-phenyl)-amide] | > 30 µM |
| O=C(Nc1cc(C(F)(F)F)c(-c2ccc(Cl)c(Cl)c2)cc1N1CCNCC1)c1cccc2ccccc12 [Compound 168, Naphthalene-1-carboxylic acid (3′,4′-dichloro-5-piperazin-1-yl-2-trifluoromethyl-biphenyl-4-yl)-amide] | < 3 µM |
| O=C(Nc1cc(C(F)(F)F)c(-c2ccc(C(F)(F)F)cc2)cc1N1CCNCC1)c1cccc2ccccc12 [Compound 170, Naphthalene-1-carboxylic acid (5-piperazin-1-yl-2,4′-bis-trifluoromethyl-biphenyl-4-yl)-amide] | < 3 µM |

More lines, now with the values ahead:

| Ki | SMILES |
| --- | --- |
| 3 to 30 µM | CCN(CC)S(=O)(=O)c1ccc(-c2ccc(N3CCNCC3)c(NC(=O)c3cccc4ccccc34)c2)cc1 [Compound 145, Naphthalene-1-carboxylic acid (4′-diethylsulfamoyl-4-piperazin-1-yl-biphenyl-3-yl)-amide] |
| < 3 µM | O=C(Nc1cc(-c2ccc(S(=O)(=O)NC3CCCCC3)cc2)ccc1N1CCNCC1)c1cccc2ccccc12 [Compound 147, Naphthalene-1-carboxylic acid (4′-cyclohexylsulfamoyl-4-piperazin-1-yl-biphenyl-3-yl)-amide] |
| > 30 µM | O=C(Nc1cc(C(F)(F)F)cc(Cl)c1N1CCNCC1)c1cccc2ccccc12 [Compound 148, Naphthalene-1-carboxylic acid (3-chloro-2-piperazin-1-yl-5-trifluoromethyl-phenyl)-amide] |
| 3 to 30 µM | Cc1cc(N2CCNCC2)c(NC(=O)c2cccc3ccccc23)cc1-c1ccsc1 [Compound 155, Naphthalene-1-carboxylic acid (4-methyl-2-piperazin-1-yl-5-thiophen-3-yl-phenyl)-amide] |
| 3 to 30 µM | O=C(Nc1cc(F)c(-c2ccccc2)cc1N1CCNCC1)c1cccc2ccccc12 [Compound 158, Naphthalene-1-carboxylic acid (2-fluoro-5-piperazin-1-yl-biphenyl-4-yl)-amide] |
| < 3 µM | O=C(Nc1cc(F)c(-c2ccc(C(F)(F)F)cc2)cc1N1CCNCC1)c1cccc2ccccc12 [Compound 159, Naphthalene-1-carboxylic acid (2-fluoro-5-piperazin-1-yl-4′-trifluoromethyl-biphenyl-4-yl)-amide] |
| < 3 µM | FC(F)(F)c1ccc(-c2ccc(N3CCNCC3)c(NCc3ccc4ccccc4c3)c2)cc1 [Compound 166, Naphthalen-2-ylmethyl-(4-piperazin-1-yl-4′-trifluoromethyl-biphenyl-3-yl)-amine] |
| < 3 µM | O=C(Nc1cc(C(F)(F)F)c(-c2cc(Cl)ccc2Cl)cc1N1CCNCC1)c1cccc2ccccc12 [Compound 169, Naphthalene-1-carboxylic acid (2′,5′-dichloro-5-piperazin-1-yl-2-trifluoromethyl-biphenyl-4-yl)-amide] |
| < 3 µM | O=S(=O)(Nc1cc(C(F)(F)F)ccc1N1CCNCC1)c1ccc(-c2ccc(C(F)(F)F)cc2)cc1 [Compound 171, 4′-Trifluoromethyl-biphenyl-4-sulfonic acid (2-piperazin-1-yl-5-trifluoromethyl-phenyl)-amide] |
| < 3 µM | O=S(=O)(Nc1cc(C(F)(F)F)ccc1N1CCNCC1)c1ccc(-c2ccccc2C(F)(F)F)cc1 [Compound 172, 2′-Trifluoromethyl-biphenyl-4-sulfonic acid (2-piperazin-1-yl-5-trifluoromethyl-phenyl)-amide] |
| < 3 µM | O=C(Nc1ccc(-c2ccc(Cl)c(Cl)c2)cc1N1CCNCC1)c1cccc2ccccc12 [Compound 173, Naphthalene-1-carboxylic acid (3′,4′-dichloro-3-piperazin-1-yl-biphenyl-4-yl)-amide] |
